# Paper PMC10107917 (ACS Medicinal Chemistry Letters, 2023)
# Where two headings read alike, the source gives them in different places. Bridge positions count the residues as written; N and C are the ends. Peptide text beside a SMILES is read from it.
# Columns and labels:
# [1] = biological target: furin; details: cited from earlier work
# [2] = biological target: T1, human recombinant furin (Homo sapiens, UniProt P09958); assay type: biochemical; details: for Ki / IC50: ± SEM; for Ki: Cheng-Prusoff from IC50, competitive mode assumed, Km 1.90 µM; for IC50: triplicate, substrate 20 µM
# T1 construct: Soluble human recombinant furin was kindly gifted; gift of Dr Anna Kwiatkowska (group of Prof. Robert Day, Université de Sherbrooke)
# Description: Initially, the activities of the furin inhibitors were screened at three concentrations, i.e., 2.4, 24.0, and 77.0 nM (Figure 4). For selected peptides 3, 5, and 6 and the reference FI, the inhibitory constants (Ki) were calculated (Table 2). Except for the bicyclic peptide 4, all of the inhibitors almost completely abolished the enzyme activity at the highest tested concentration. Peptide 4 was explicitly the weakest inhibitor in the series, also when compared with its monocyclic disulfide-bridged counterpart 1. When the inhibitory activities were analyzed at the lowest tested concentration (2.4 nM), three peptides (3, 5, and 6) reduced the furin activity to less than 50% of its initial noninhibited activity. All of them have an additional basic amino acid at their N-termini (in MD simulations this is depicted as a residue with number “0”). […] Such close inhibitory potency was not observed in the case of an analogous pair, i.e., 2 and 5. […] The two disulfide-bridged peptides, FI and 1, differ only at the P4 position, having Lys and Arg, respectively. […]
# The IC50 values (inhibitor concentrations giving 50% inhibition of enzyme activity) were calculated from plots of enzyme activity (% of control sample) versus the inhibitor’s concentration using a four-parameter fit model (GraFit 5.0.12 Erithacus Software Ltd.). The IC50 values were determined from triplicate measurements with at least seven different inhibitor concentrations. The K i values […] were calculated using the Cheng-Prusoff equation, assuming the competitive mode of inhibition, according to the following relationship: IC50 = K i(1+S/Km). All measurements were performed using a Fluostar Omega microplate reader (BMG Labtech, Germany) and 96-well black plates (BRAND, Germany). Recombinant human matriptase-1/ST14 catalytic domain was purchased from R&D Systems, USA. Recombinant human matriptase-2 was obtained from Enzo Life Sciences, Switzerland.
# Soluble human recombinant furin was kindly gifted by Dr Anna Kwiatkowska (group of Prof. Robert Day from Université de Sherbrooke).4
# The following assay buffers were used: […] (matriptase-1 and matriptase-2), pH 7.5 100 mM HEPES with 1 mM CaCl 2 and 1.8 mg/mL BSA (furin). The substrates used in the assays were as follows: for matriptase-1 and matriptase-2 Boc-Gln-Ala-Arg-AMC (Pepta Nova, Germany) in final concentration of 5 µM, for furin […] (Pepta Nova, Germany) in final concentration of 20 µM. Enzymes concentrations were as follows: 1.25 ng/mL of matriptase-1, 1.51 U/mL for matriptase-2, and 1.1 nM for furin. In the case of matriptase-1 and matripase-2 concentrations were calculated according to information provided by the suppliers.
# In short, the tested compounds were added to the appropriate protease in different concentrations and incubated in an assay buffer at 37 °C for 30 min. After this time, a solution of appropriate substrate was added. Reactions were monitored for at least 40 min at 37 °C. The final volume in each well was 200 µL for matriptases and 100 µL for furin. Measurements were carried out using excitation and emission wavelengths of 380 nm and 450 nm. The percentage inhibition of an enzyme was calculated relative to the control sample without an inhibitor. The K m value for furin substrate was determined by incubating the enzyme with its substrate in various concentrations as recommended.5 Plots of the substrate concentration versus the initial reaction velocity were analyzed according to Michaelis-Menten equation using GraFit 5.0.12 Erithacus Software Ltd. A double reciprocal (Lineweaver-Burk) plot was used to determine the Michaelis constant K m value. K m value determined for furin was 1.90 µM.
# Total furin-like enzyme inhibition/activity in PANC-1 cell lysates
# Cell line and cell culture. The pancreatic cancer cell line, PANC-1, was obtained from the American Type Culture Collection, ATCC (Manassas, USA). […]
# T1 sequence (P09958 108-715 limits assumed): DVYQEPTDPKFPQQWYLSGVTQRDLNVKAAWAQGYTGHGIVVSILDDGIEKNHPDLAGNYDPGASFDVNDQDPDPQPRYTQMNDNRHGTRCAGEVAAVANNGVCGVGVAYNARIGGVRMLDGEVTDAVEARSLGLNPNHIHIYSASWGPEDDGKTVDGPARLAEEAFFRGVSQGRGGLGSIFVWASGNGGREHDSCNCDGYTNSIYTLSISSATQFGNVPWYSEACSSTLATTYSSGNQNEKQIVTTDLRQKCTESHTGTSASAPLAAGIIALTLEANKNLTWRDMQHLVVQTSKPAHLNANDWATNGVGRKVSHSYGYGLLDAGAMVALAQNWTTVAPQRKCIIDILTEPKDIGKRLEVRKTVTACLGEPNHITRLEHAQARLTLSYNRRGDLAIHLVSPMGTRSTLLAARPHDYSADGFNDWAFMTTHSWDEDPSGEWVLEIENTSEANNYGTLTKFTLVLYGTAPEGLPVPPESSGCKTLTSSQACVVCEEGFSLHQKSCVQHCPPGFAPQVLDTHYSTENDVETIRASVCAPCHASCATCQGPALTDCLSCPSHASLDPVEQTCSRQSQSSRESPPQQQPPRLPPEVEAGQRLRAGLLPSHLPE
furin activity versus control with no inhibitor added ([2]; inhibitor 2.4 nM),furin activity versus control with no inhibitor added ([2]; inhibitor 24.0 nM),furin activity versus control with no inhibitor added ([2]; inhibitor 77.0 nM (highest tested concentration)),Ki [2],IC50 [2],SMILES,Ki [1]
66.76%,9.86%,0.31%,0.38 ± 0.02 nM,4.42 ± 0.22 nM,"CC[C@H](C)[C@@H]1NC(=O)[C@@H]2CCCN2C(=O)[C@@H]2CCCN2C(=O)[C@H]([C@@H](C)CC)NC(=O)[C@H](CO)NC(=O)[C@H](CCCCN)NC(=O)[C@H](CCCCN)NC(=O)[C@@H](NC(=O)[C@H](CCCNC(=N)N)NC(=O)[C@@H](N)CCCCN)CSSC[C@@H](C(=O)N[C@@H](Cc2ccccc2)C(N)=O)NC1=O [FI, Lys-Arg-Cys(&)-Lys-Lys-Ser-Ile-Pro-Pro-Ile-Cys(&)-Phe-NH2, reference compound] (H-KRCKKSIPPICF-NH2; disulfide 3-11; N-terminus assumed)",0.49 nM
,,,0.27 ± 0.02 nM,3.07 ± 0.2 nM,"CC[C@H](C)[C@@H]1NC(=O)[C@@H]2CCCN2C(=O)[C@@H]2CCCN2C(=O)[C@H]([C@@H](C)CC)NC(=O)[C@H](CO)NC(=O)[C@H](CCCCN)NC(=O)[C@H](CCCCN)NC(=O)[C@@H](NC(=O)[C@H](CCCNC(=N)N)NC(=O)[C@H](CCCNC(=N)N)NC(=O)[C@@H](N)CCCNC(=N)N)CSSC[C@@H](C(=O)N[C@@H](Cc2ccccc2)C(N)=O)NC1=O [inhibitor 3, Arg-Arg-Arg-Cys(&)-Lys-Lys-Ser-Ile-Pro-Pro-Ile-Cys(&)-Phe-NH2] (H-RRRCKKSIPPICF-NH2; disulfide 4-12)",
,,,0.21 ± 0.01 nM,2.41 ± 0.12 nM,"CC[C@H](C)[C@@H]1NC(=O)[C@@H]2CCCN2C(=O)[C@@H]2CCCN2C(=O)[C@H]([C@@H](C)CC)NC(=O)[C@H](CO)NC(=O)[C@H](CCCCN)NC(=O)[C@H](CCCCN)NC(=O)[C@@H]2CSSC[C@H](NC1=O)C(=O)N[C@@H](Cc1ccccc1)C(=O)N[C@@H](CCCCN)C(=O)N[C@@H](CCCNC(=N)N)C(=O)N[C@@H](CCCNC(=N)N)C(=O)N2 [inhibitor 5, &^1Lys-Arg-Arg-Cys(&^2)-Lys-Lys-Ser-Ile-Pro-Pro-Ile-Cys(&^2)-Phe&^1] (cyclo(KRRCKKSIPPICF); disulfide 4-12)",
,,,0.25 ± 0.01 nM,2.91 ± 0.17 nM,"CC[C@H](C)[C@@H]1NC(=O)[C@@H]2CCCN2C(=O)[C@@H]2CCCN2C(=O)[C@H]([C@@H](C)CC)NC(=O)[C@H](CO)NC(=O)[C@H](CCCCN)NC(=O)[C@H](CCCCN)NC(=O)[C@@H]2CSSC[C@H](NC1=O)C(=O)N[C@@H](Cc1ccccc1)C(=O)N[C@@H](CCCNC(=N)N)C(=O)N[C@@H](CCCNC(=N)N)C(=O)N[C@@H](CCCNC(=N)N)C(=O)N2 [inhibitor 6, &^1Arg-Arg-Arg-Cys(&^2)-Lys-Lys-Ser-Ile-Pro-Pro-Ile-Cys(&^2)-Phe&^1] (cyclo(RRRCKKSIPPICF); disulfide 4-12)",
